pIC50: −log10 of the molar value.
What was measured:
[1] = DRUGMATRIX: Imidazoline I2, Central radioligand binding (ligand: [3H] Idazoxan); assay type: cell membranes, Rattus norvegicus, Wistar, Cerebral cortex, Membrane; details: Not Active = under 50% inhibition at 10 µM
[2] = target: Epidermal growth factor receptor (Homo sapiens, UniProt P00533); assay: DRUGMATRIX: Protein Tyrosine Kinase, EGF Receptor enzyme inhibition (substrate: Poly(Glu:Tyr)); assay type: cell-based, Insect cells; details: insect cells; Not Active = under 50% inhibition at 10 µM
[3] = target: Mitogen-activated protein kinase 1 (Homo sapiens, UniProt P28482); assay: DRUGMATRIX: Protein Serine/Threonine Kinase, ERK2 enzyme inhibition (substrate: Myelin Basic Protein); parameters: species or system Escherichia coli; details: Not Active = under 50% inhibition at 10 µM
[4] = target: Mitogen-activated protein kinase 14 (Homo sapiens, UniProt Q16539); parameters: species or system Escherichia coli;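 further: inhibition of p38alpha enzyme activity in a biochemical kinase assay, with myelin basic protein serving as substrate; in other assays of this panel Not Active means under 50% inhibition at 10 µM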
[5] = target: T1, 5-hydroxytryptamine receptor 1A (Rattus norvegicus, UniProt P19327); assay type: cell membranes, CHO-K1, Membrane; details: cho-k1; further: in other assays of this panel Not Active means under 50% inhibition at 10 µM
T1 sequence (P19327 whole entry): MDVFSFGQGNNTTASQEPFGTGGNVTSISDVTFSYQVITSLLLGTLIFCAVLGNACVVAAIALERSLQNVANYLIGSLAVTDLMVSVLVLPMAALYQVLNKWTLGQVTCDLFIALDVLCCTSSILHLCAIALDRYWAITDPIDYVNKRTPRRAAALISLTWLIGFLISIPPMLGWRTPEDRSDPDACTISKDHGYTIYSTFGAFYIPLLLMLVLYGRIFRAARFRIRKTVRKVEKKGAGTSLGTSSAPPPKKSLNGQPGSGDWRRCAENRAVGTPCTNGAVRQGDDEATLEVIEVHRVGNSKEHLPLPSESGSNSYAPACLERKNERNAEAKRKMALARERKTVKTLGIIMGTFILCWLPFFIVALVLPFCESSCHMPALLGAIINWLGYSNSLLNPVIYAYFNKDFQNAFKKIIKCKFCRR

[6] = DRUGMATRIX: Nicotinic Acetylcholine radioligand binding (ligand: [125I] Epibatidine); assay type: cell membranes, Membrane; details: imr-32; Not Active = under 50% inhibition at 10 µM
Cytochrome P450 1A2 = target: T2, Cytochrome P450 1A2 (Homo sapiens, UniProt P05177); details: bti-tn-5b1-4; further: in other assays of this panel Not Active means under 50% inhibition at 10 µM
T2 sequence (P05177 whole entry): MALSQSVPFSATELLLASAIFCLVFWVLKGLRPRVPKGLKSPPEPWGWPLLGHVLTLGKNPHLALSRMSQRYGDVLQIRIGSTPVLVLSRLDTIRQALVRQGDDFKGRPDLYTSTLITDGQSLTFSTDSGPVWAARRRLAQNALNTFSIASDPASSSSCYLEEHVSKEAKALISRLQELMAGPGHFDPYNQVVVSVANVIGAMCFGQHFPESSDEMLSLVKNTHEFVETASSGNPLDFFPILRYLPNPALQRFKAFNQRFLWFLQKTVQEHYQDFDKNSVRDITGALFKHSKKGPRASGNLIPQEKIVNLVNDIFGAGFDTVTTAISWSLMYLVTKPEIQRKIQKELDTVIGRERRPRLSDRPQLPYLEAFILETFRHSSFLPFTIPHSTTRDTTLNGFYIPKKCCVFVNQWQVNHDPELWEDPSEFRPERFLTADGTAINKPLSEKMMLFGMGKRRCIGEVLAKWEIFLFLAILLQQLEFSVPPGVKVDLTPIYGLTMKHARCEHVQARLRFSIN

Sequence of Mitogen-activated protein kinase 14 (Q16539 whole entry): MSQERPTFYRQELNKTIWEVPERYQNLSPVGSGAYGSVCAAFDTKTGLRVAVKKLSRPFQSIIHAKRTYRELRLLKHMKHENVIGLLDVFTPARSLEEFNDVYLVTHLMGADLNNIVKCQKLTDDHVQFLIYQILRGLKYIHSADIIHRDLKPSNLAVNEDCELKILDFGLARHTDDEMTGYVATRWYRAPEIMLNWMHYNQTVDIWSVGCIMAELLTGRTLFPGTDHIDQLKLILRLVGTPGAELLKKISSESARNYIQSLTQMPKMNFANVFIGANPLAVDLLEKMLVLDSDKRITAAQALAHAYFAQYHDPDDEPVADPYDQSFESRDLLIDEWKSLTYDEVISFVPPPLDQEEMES
Sequence of Mitogen-activated protein kinase 1 (P28482 whole entry): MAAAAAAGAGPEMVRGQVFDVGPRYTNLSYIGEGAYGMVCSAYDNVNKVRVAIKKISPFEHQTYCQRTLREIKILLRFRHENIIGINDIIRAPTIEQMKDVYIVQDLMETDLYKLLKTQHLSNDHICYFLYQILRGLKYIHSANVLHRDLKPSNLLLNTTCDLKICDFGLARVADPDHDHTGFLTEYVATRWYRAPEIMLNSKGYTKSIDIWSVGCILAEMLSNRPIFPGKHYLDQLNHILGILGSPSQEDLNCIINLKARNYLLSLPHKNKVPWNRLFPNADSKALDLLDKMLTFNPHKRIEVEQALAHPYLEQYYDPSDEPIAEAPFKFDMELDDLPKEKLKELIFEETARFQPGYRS

Compound | IC50 [1] | Ki [1] | IC50 [2] | IC50 [3] | IC50 [4] | IC50 [5] | IC50 [6] | Ki [6] | IC50 (Cytochrome P450 1A2) | Ki (Cytochrome P450 1A2) | pIC50 ([3]; read-out: IC50) | Ki [2] | Ki [3] | Ki [4] | Ki [5]
Cc1noc(NS(=O)(=O)c2ccc(N)cc2)c1C [SULFISOXAZOLE] | Not Active | Not Active | Not Active | Not Active | Not Active | Not Active | Not Active | Not Active | Not Active | Not Active |  |  |  |  | 
Nc1c2c(nc3ccccc13)CCCC2 [TACRINE] | Not Active | Not Active | Not Active | Not Active | Not Active | Not Active | Not Active | Not Active | Not Active | Not Active |  |  |  |  | 
Nc1nc2nc[nH]c2c(=S)[nH]1 [THIOGUANINE] | Not Active | Not Active | Not Active | Not Active | Not Active | Not Active | Not Active | Not Active | Not Active | Not Active |  |  |  |  | 
Cc1cccc(N(C)C(=S)Oc2ccc3ccccc3c2)c1 [TOLNAFTATE] | Not Active | Not Active | Not Active | Not Active | Not Active | Not Active | Not Active | Not Active | Not Active | Not Active |  |  |  |  | 
NC[C@H]1CC[C@H](C(=O)O)CC1 [TRANEXAMIC ACID] | Not Active | Not Active | Not Active | Not Active | Not Active | Not Active | Not Active | Not Active | Not Active | Not Active |  |  |  |  | 
CC1(C)O[C@@H]2C[C@H]3[C@@H]4CCC5=CC(=O)C=C[C@]5(C)[C@@]4(F)[C@@H](O)C[C@]3(C)[C@]2(C(=O)CO)O1 [TRIAMCINOLONE ACETONIDE] | Not Active | Not Active | Not Active | Not Active | Not Active | Not Active | Not Active | Not Active | Not Active | Not Active |  |  |  |  | 
NS(=O)(=O)c1cc2c(cc1Cl)NC(C(Cl)Cl)NS2(=O)=O (centres undefined) [TRICHLORMETHIAZIDE] | Not Active | Not Active | Not Active | Not Active | Not Active | Not Active | Not Active | Not Active | Not Active | Not Active |  |  |  |  | 
Cc1c(C)c2c(c(C)c1O)CCC(C)(COc1ccc(CC3SC(=O)NC3=O)cc1)O2 (centres undefined) [TROGLITAZONE] | Not Active | Not Active | Not Active |  | Not Active | Not Active | Not Active | Not Active | Not Active | Not Active | 5.91 |  |  |  | 
CC[C@]1(O)C[C@H]2CN(CCc3c([nH]c4ccccc34)[C@@](C(=O)OC)(c3cc4c(cc3OC)N(C=O)[C@H]3[C@@](O)(C(=O)OC)[C@H](OC(C)=O)[C@]5(CC)C=CCN6CC[C@]43[C@@H]65)C2)C1 [VINCRISTINE] | Not Active | Not Active | Not Active | Not Active | Not Active | Not Active | Not Active | Not Active | Not Active | Not Active |  |  |  |  | 
CCCOc1ccccc1-c1nc2nn[nH]c2c(=O)[nH]1 [ZAPRINAST] | Not Active | Not Active | Not Active | Not Active | Not Active | Not Active | Not Active | Not Active | Not Active | Not Active |  |  |  |  | 
SODIUM NITROPRUSSIDE | Not Active | Not Active | Not Active | Not Active | Not Active | Not Active | Not Active | Not Active | Not Active | Not Active |  | Not Active | Not Active | Not Active | Not Active
